Measurements published in patent US11149031B2, “Substituted N-(3-fluoropropyl)-pyrrolidine compounds, processes for their preparation and therapeutic uses thereof” (SANOFI, priority 2016, dated 2021).
Like-named read-outs stand apart in the source and are kept apart here.

Columns and labels:
[1] = tested on: MCF7 cells (breast tumor cells) WT; test: Test B: cell proliferation/viability assay (CellTiter-Glo) on MCF7 WT; type: cell-based; settings: Homo sapiens, MCF7, 168 h, 7 days of compound exposure
Description: (§1) Test B: Cell Proliferation/Viability Assay on MCF7 (Breast Tumor Cells) WT and Mutants Cell Lines
(§2) Test B involves measuring the in vitro proliferation activity of the compounds of the invention by analyzing the viability of the tumor cells.
The measurements of the viability were made using a breast cancer cell viability assay as described hereunder. […]
(§3) MCF7 cells (ATCC) or MCF7 cells expressing (and dependent) on mutants estrogen receptor Tyr 537 Ser or Asp 538 Gly were seeded in 384 wells microplate at concentration of >999 cells/30 μL per well in red phenol free MEM medium containing 5% charcoal dextran striped FBS. The following day, 9 points serial 1:5 dilution of each compound were added to the cells in 20 μL at final concentrations ranging from 3-0.000001 μM. After 7 days of compound exposure, 50 μL of CellTiter-Glo (promega) was added to the cells and relative luminescence arbitrary units (RLUs) were determined in luminescence plate reader (Envision device). CellTiter-Glo was added to 50 μL medium without cells to determine the background signal.
(§4) The percent of viability of each sample was determined as follows: (RLU sample−RLU background/RLU untreated−RLU background)*100=% viability.

[2] = tested on: MCF7 cells expressing mutant estrogen receptor Tyr 537 Ser; test: Test B: cell proliferation/viability assay (CellTiter-Glo) on MCF7 Tyr 537 Ser mutant; type: cell-based; settings: Homo sapiens, MCF7, 168 h, MCF7 cells expressing ER Tyr 537 Ser mutant, 7 days of compound exposure, read-out: proliferation MCF7 Y537S IC50
From the text: as §1, §2
(§5) The measurements of the viability were made using a breast cancer cell viability assay as described hereunder.
(§6) MCF7 cells expressing (and dependent) on mutants estrogen receptor Tyr 537 Ser or Asp 538 Gly were generated by transfection of MCF7 parental cells (ATCC) with expression vectors coding for different mutants of estrogen receptor Tyr 537 Ser or Asp 538 Gly. The cells were first selected by antibiotic (related to vector expression) and then selected for their growth dependence on estrogen receptor based on their ability to grow in vitro in absence of estradiol (parental cell line die in absence of estradiol).
as §3, §4

[3] = target: ERα in MCF7 cells (Homo sapiens (Human), UniProt P03372); test: Test C: estrogen receptor degradation activity, ERα in cell western assay in MCF7 cells; type: cell-based; settings: for DC50: 4 hours post compound addition, ERα in cell western, read-out: Degradation IC50; for % Degradation at 3 μM: 4 hours, relative to fulvestrant
Procedure, shortened: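 ERα level is read as integrated green fluorescence, with DNA taken from red Syto-64 signal, after MCF7 cells are exposed to compound for 4 hours. Cells grow in hormone-depleted medium (5% charcoal-dextran stripped FBS, no phenol red); fulvestrant at 0.1 μM is the positive control.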

[4] = target: His6-ERα298-554 Y537S mutant (ERα ligand-binding domain) (Homo sapiens (Human), UniProt P03372, Y537S); test: Test A: biochemical antagonist activity, LanthaScreen TR-FRET ERα coactivator assay, Y537S mutant; settings: read-out: Antagonism Y537S IC50
Procedure, shortened: (§7)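 His6-ERα LBD (aa 298–554), 0.5 nM, with Tb-anti-His6 antibody, 250 nM PGC1a peptide and 3 nM (or 10 nM) estradiol in pH 7.4 potassium phosphate/DTT buffer; incubated with compound overnight at room temperature. IC50 from 4-parameter logistic fit of TR-FRET 520:495 nm ratio.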

[5] = target: His6-ERα298-554 D538G mutant (ERα ligand-binding domain) (Homo sapiens (Human), UniProt P03372, D538G); test: Test A: biochemical antagonist activity, LanthaScreen TR-FRET ERα coactivator assay, D538G mutant; settings: read-out: Antagonism D538G IC50
Procedure, shortened: as §7

[6] = target: His6-ERα298-554 WT (ERα ligand-binding domain) (Homo sapiens (Human), UniProt P03372); test: Test A: biochemical antagonist activity, LanthaScreen TR-FRET ERα coactivator assay, WT; settings: read-out: Antagonism WT IC50
Procedure, shortened: as §7

[7] = tested on: MCF7 cells expressing mutant estrogen receptor Asp 538 Gly; test: Test B: cell proliferation/viability assay (CellTiter-Glo) on MCF7 Asp 538 Gly mutant; type: cell-based; settings: Homo sapiens, MCF7, 168 h, MCF7 cells expressing ER Asp 538 Gly mutant, 7 days of compound exposure, read-out: proliferation MCF7 D538G IC50
From the text: as §1, §2, §5, §6, §3, §4

[8] = asterisk (*): protocol using 10 nM estradiol

His6-ERα298-554 WT (ERα ligand-binding domain), sequence (P03372 298-554): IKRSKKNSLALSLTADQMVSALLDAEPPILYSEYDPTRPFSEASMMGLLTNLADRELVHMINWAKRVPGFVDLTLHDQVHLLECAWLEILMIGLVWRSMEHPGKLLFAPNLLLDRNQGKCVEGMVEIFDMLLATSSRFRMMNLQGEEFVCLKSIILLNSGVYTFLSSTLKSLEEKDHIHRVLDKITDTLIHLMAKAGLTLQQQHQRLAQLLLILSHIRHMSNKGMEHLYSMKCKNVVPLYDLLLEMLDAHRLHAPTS
His6-ERα298-554 Y537S mutant (ERα ligand-binding domain), sequence (P03372 298-554 Y537S): as the sequence (P03372 298-554) above, with Y240S counted along it
ERα in MCF7 cells, sequence (P03372 whole entry): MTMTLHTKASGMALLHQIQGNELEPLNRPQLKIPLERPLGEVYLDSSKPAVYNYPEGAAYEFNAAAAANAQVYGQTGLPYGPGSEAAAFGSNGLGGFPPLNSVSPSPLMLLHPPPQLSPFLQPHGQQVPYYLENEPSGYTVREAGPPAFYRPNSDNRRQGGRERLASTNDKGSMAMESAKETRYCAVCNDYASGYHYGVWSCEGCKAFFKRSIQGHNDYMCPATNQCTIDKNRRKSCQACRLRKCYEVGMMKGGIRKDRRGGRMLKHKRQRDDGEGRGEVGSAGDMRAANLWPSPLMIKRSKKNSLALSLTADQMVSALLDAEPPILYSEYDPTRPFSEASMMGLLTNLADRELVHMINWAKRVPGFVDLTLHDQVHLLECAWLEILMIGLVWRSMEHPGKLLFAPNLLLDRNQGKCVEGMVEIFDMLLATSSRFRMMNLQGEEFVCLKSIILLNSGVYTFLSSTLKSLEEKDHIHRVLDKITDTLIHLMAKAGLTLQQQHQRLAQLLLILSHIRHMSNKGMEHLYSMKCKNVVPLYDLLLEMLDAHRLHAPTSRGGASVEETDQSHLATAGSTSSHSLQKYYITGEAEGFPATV
His6-ERα298-554 D538G mutant (ERα ligand-binding domain), sequence (P03372 298-554 D538G): as the sequence (P03372 298-554) above, with D241G counted along it

| Structure (SMILES) | IC50 [1] [nM] | IC50 [2] [nM] | DC50 [3] [nM] | % Degradation at 3 μM [3] [%] | IC50 [4, 8] [nM] | IC50 [5, 8] [nM] | IC50 [6, 8] [nM] | IC50 [7] [nM] | IC50 ([4]; protocol with 3 nM estradiol) [nM] | IC50 ([5]; protocol with 3 nM estradiol) [nM] | IC50 ([6]; protocol with 3 nM estradiol) [nM] |
| --- | --- | --- | --- | --- | --- | --- | --- | --- | --- | --- | --- |
| [2H]C([2H])([2H])Oc1ccc(C2=C(c3ccc(O[C@H]4CCN(CCCF)C4)cc3)c3ccc(O)cc3SCC2)c(F)c1 [Example 209, 5-[4-[(3S)-1-(3-fluoropropyl)pyrrolidin-3-yl]oxyphenyl]-4-[2-fluoro-4-(trideuteriomethoxy)phenyl]-2,3-dihydro-1-benzothiepin-8-ol] | 0.3 | 4 | 0.4 | 92 | 20 | 35 | 2 | 0.7 | – | – | – |
| Oc1ccc2c(c1)OCCC(c1ccc(Cl)cc1Cl)=C2c1ccc(O[C@H]2CCN(CCCF)C2)cc1 [Example 102, 4-(2,4-dichlorophenyl)-5-[4-[(3S)-1-(3-fluoropropyl)pyrrolidin-3-yl]oxyphenyl]-2,3-dihydro-1-benzoxepin-8-ol] | 0.5 | 5 | 2 | 87 | – | – | – | 0.8 | 51 | 106 | 12 |
| CCOc1ccc(C2=C(c3ccc(O[C@H]4CCN(CCCF)C4)nc3)c3ccc(O)c(F)c3CCC2)c(F)n1 [Example 252, 6-(6-ethoxy-2-fluoro-3-pyridyl)-1-fluoro-5-[6-[(3S)-1-(3-fluoropropyl)pyrrolidin-3-yl]oxy-3-pyridyl]-8,9-dihydro-7H-benzo[7]annulen-2-ol] | 0.6 | 9 | 0.2 | 86 | 9 | 8 | 0.7 | 0.4 | – | – | – |
| CC(C)(C)c1ccc(C2=C(c3ccc(O[C@H]4CCN(CCCF)C4)cc3)c3cc(O)ccc3CC2)cc1 [Example 11, 7-(4-tert-butylphenyl)-8-[4-[(3S)-1-(3-fluoropropyl)pyrrolidin-3-yl]oxyphenyl]-5,6-dihydronaphthalen-2-ol] | 44 | > 999 | 49 | 80 | > 4000 | > 4000 | > 4000 | 162 | – | – | – |
| Cc1ccc(C2=C(c3ccc(O[C@H]4CCN(CCCF)C4)cc3)c3ccc(C(=O)O)cc3SC2)c(F)c1 [Example 25, 3-(2-fluoro-4-methyl-phenyl)-4-[4-[(3S)-1-(3-fluoropropyl)pyrrolidin-3-yl]oxyphenyl]-2H-thiochromene-7-carboxylic acid] | 16 | 160 | 19 | 93 | > 4000 | > 4000 | 1420 | 31 | – | – | – |
| Oc1ccc2c(c1)OCCC(c1cccc3[nH]ccc13)=C2c1ccc(O[C@H]2CCN(CCCF)C2)cc1 [Example 110, 5-[4-[(3S)-1-(3-fluoropropyl)pyrrolidin-3-yl]oxyphenyl]-4-(1H-indol-4-yl)-2,3-dihydro-1-benzoxepin-8-ol] | 1 | 45 | 0.2 | 87 | – | – | – | 6 | 26 | 39 | 5 |
| Oc1ccc2c(c1)SCC(c1ccc(Cl)nc1Cl)=C2c1ccc(O[C@H]2CCN(CCCF)C2)cc1 [Example 50, 3-(2,6-dichloro-3-pyridyl)-4-[4-[(3S)-1-(3-fluoropropyl)pyrrolidin-3-yl]oxyphenyl]-2H-thiochromen-7-ol] | 0.6 | 7 | 0.2 | 84 | 1170 | 1550 | 72 | 2 | – | – | – |
| Oc1ccc2c(c1)OCC(c1ccc(F)cc1Cl)=C2c1ccc(O[C@H]2CCN(CCCF)C2)cc1 [Example 82, 3-(2-chloro-4-fluoro-phenyl)-4-[4-[(3S)-1-(3-fluoropropyl)pyrrolidin-3-yl]oxyphenyl]-2H-chromen-7-ol] | 15 | 18 | 7 | 86 | 2290 | > 4000 | 297 | 1 | – | – | – |
| COCCOc1ccc(C2=C(c3ccc(O[C@H]4CCN(CCCF)C4)cc3)c3ccc(O)cc3OCC2)cc1 [Example 146, 5-[4-[(3S)-1-(3-fluoropropyl)pyrrolidin-3-yl]oxyphenyl]-4-[4-(2-methoxyethoxy)phenyl]-2,3-dihydro-1-benzoxepin-8-ol] | 6 | 69 | 2 | 86 | 845 | 1170 | 51 | 12 | – | – | – |
| Oc1ccc2c(c1)SCCC(c1ccc(OC(F)F)cc1F)=C2c1ccc(O[C@H]2CCN(CCCF)C2)cc1 [Example 213, 4-[4-(difluoromethoxy)-2-fluoro-phenyl]-5-[4-[(3S)-1-(3-fluoropropyl)pyrrolidin-3-yl]oxyphenyl]-2,3-dihydro-1-benzothiepin-8-ol] | 0.3 | 2 | 0.9 | 86 | 55 | 96 | 4 | 0.2 | – | – | – |
| Oc1ccc2c(c1F)OCCC(c1ccc3c(c1)CCN3)=C2c1ccc(O[C@H]2CCN(CCCF)C2)cc1 [Example 107, 9-fluoro-5-[4-[(3S)-1-(3-fluoropropyl)pyrrolidin-3-yl]oxyphenyl]-4-indolin-5-yl-2,3-dihydro-1-benzoxepin-8-ol] | 19 | 147 | 2 | 82 | – | – | – | 33 | 55 | 79 | 19 |
| Oc1ccc2c(c1)OCCC(c1ccc3cc[nH]c3c1)=C2c1ccc(O[C@H]2CCN(CCCF)C2)cc1 [Example 103, 5-[4-[(3S)-1-(3-fluoropropyl)pyrrolidin-3-yl]oxyphenyl]-4-(1H-indol-6-yl)-2,3-dihydro-1-benzoxepin-8-ol] | 0.3 | 4 | 3 | 89 | – | – | – | 1 | 101 | 252 | 38 |
| Oc1ccc2c(c1)SCC(c1ccc(F)nc1F)=C2c1ccc(O[C@H]2CCN(CCCF)C2)cc1 [Example 49, 3-(2,6-difluoro-3-pyridyl)-4-[4-[(3S)-1-(3-fluoropropyl)pyrrolidin-3-yl]oxyphenyl]-2H-thiochromen-7-ol] | 0.3 | 3 | 0.2 | 89 | 472 | 888 | 37 | 0.9 | – | – | – |
| Oc1ccc2c(c1)OCC(c1ccc(Cl)cc1Cl)=C2c1ccc(O[C@H]2CCN(CCCF)C2)cc1 [Example 81, 3-(2,4-dichlorophenyl)-4-[4-[(3S)-1-(3-fluoropropyl)pyrrolidin-3-yl]oxyphenyl]-2H-chromen-7-ol] | 18 | 17 | 7 | 77 | > 4000 | > 4000 | 520 | 3.5 | – | – | – |
